Test results as given in patent US20240247207A1, “MALTOSIDE-, LACTOBIONAMIDE-, MONOGLUCOSIDE-, BRANCHED DIGLUCOSIDE-, SULFOBETAINE-, SULFATE- OR AMINOOXIDE-BASED PERFLUORINATED DETERGENTS AND THEIR USE IN MEMBRANE-PROTEINS APPLICATIONS” (AVIGNON UNIVERSITE, priority 2021, published 2024).
Entries after “also recorded” stand apart in the source; their conditions may differ.

Tests used:
[1] = SFT for CMC determination (surface tension, Wilhelmy plate technique); type: physicochemical; conditions: air/water interface, (20.0±0.5)° C.
Description: SFT for CMC determination. The surface activity of the compounds of the invention in solution at the air/water interface was determined using a K100 tensiometer (Kruss, Hamburg, Germany). Surface tensions were determined by dilution of stock solutions (13 g/L for compound 5a (cyF6H3Malt), 4.6 g/L for compound 5b (cyF6H4Malt), 2 g/L for compound 5c (cyF6H5Malt), 10 g/L for compound 8a (isoF5H3Malt), 1.7 g/L for compound 8c (isoF5H5Malt) and 0.4 g/L for compound 8b (isoF7H3Malt), ˜4×CMC) using the Wilhelmy plate technique. In a typical experiment, 13 concentration steps were prepared from solutions equilibrated overnight before measurement. All measurements were performed at (20.0±0.5)° C. until standard deviation reach ±0.05 or during at least 30 min.

[2] = system: membrane-proteins from native E. coli membranes; experiment: Extraction of membrane-proteins from native E. coli membranes, SDS-PAGE quantification; conditions: for membrane-protein extraction / solubilization efficiency (in words): CMC+1, 2, 5, 10 mM, at least 16 h at 20° C., yields relative to buffer without detergent
Description: Solubilization of Membrane-Proteins from native E. coli membranes. E. coli BL21(DE3) cells were transformed with an empty pET-24 vector and selected by kanamycin resistance. After incubation in 400 mL lysogeny broth overnight at 37° C. under constant agitation (150 rpm), cells were harvested by centrifugation and washed twice with saline (154 mM NaCl). Cell pellets were resuspended in ice-cold buffer (100 mM Na2CO3, pH 11.5) and subjected to ultrasonication in an S-250A sonifier (Branson Ultrasonics, Danbury, USA) twice for 10 min each. To remove cell debris, the lysate was centrifuged at 4° C. for 20 min at 7149 rpm (3000 g). The supernatant was ultracentrifuged at 4° C. for 1 h at 31 400 rpm (100,000 g) to separate membrane fragments from soluble and peripheral proteins. Membrane pellets were washed and suspended in working buffer, ultracentrifuged again at 4° C. for 1 h at 31 400 rpm (100,000 g) to remove any residual soluble or peripheral proteins. The resulting pellets were resuspended in buffer (50 mM Tris, 200 mM NaCl, pH 7.4) to a final concentration of 100 mg wet-weight pellet per 1 mL of buffer and mixed in a 1:1 volume ratio with stock solutions of the compounds of the invention in buffer. All samples were incubated for at least 16 h at 20° C. under constant, gentle agitation (500 rpm) and subsequently ultracentrifuged at 4° C. for 1 h at 51 000 rpm (100,000 g). The solubilized supernatant containing micelles was analyzed using SDS-PAGE.
Sodium dodecyl sulphate polyacrylamide gel electrophoresis (SDS-PAGE). The solubilization efficiency of compound 5a, F6OM, F6OPC and DDM on biological membranes was assessed by SDS-PAGE using a NuPAGE Bis-Tris system (Life Technologies, Carlsbad, USA) with a polyacrylamide gradient of 4-12%. 14-μL samples were mixed with 5 μL 4×SDS sample buffer (106 mM Tris HCl, 141 mM Tris base, 2% (w v) SDS, 10% (w v) glycerol, 0.51 mM EDTA, 0.22 mM SERVA Blue G250, and 0.175 mM Phenol Red, pH 8.5) and 1 μL 1 M dithiothreitol (DTT) and boiled at 95° C. for 10 min. 12 μL of each sample was loaded on a ready-to-use NuPAGE. As reference, a standard-weight marker (Roti-Mark 10-150, Carl Roth, Karlsruhe, Germany) was used, and the working buffer was used as negative control. […] For quantification of solubilization efficiencies, gels were photographed with a C4000Z camera (Olympus, Tokyo, Japan), and protein bands were analyzed with ImageJ software.
Results. The intensities (i.e., pixel counts) of SDS-PAGE band patterns (FIG. 2) were analyzed to provide the overall protein-extraction yields which were expressed relative to the buffer without any detergent.

[3] = literature value; cited from earlier work
[4] = 100 μM POPC LUVs, detergent at CMC+ca. 5 mM, 25° C., light scattering at 90°
Description: Preparation of lipid vesicles. To prepare LUVs, POPC in powder form was weighed on a high-precision XP Delta Range microbalance (Mettler Toledo, Greifensee, Switzerland) and suspended in phosphate buffer (10 mM Na2HIPO4/NaH2PO4, 150 mM NaCl, pH 7.4). The solution was vortexed for 15 min at room temperature and extruded in a LiposoFast extruder (Avestin, Mannheim, Germany) with at least 35 extrusion steps through two stacked polycarbonate membranes with a pore diameter of 100 nm (Avestin). The hydrodynamic diameter of the LUVs was distributed around 120-130 nm, as shown by DLS.
Kinetics of vesicle solubilization. For vesicle solubilization kinetics, measurements were conducted by adding a high concentration (ca. 5 mM) of the compound of the invention above its CMC to 100 μM POPC LUVs in a 3 mm×3 mm quartz glass cuvette. […] Measurements were started immediately after mixing the vesicle suspension to monitor changes in light scattering intensity, Iscatter at an angle of 90° and at 25° C.
The solubilization of preformed large unilamellar vesicles (LUVs) composed of the singly unsaturated phospholipid 1-palmitoyl-2-oleyl-sn-glycero-3-phosphocholine (POPC) was investigated.

SMILES	CMC (critical micellar concentration) [1] [mM]	γCMC (surface tension at the CMC) [1] [mN/m]	membrane-protein extraction / solubilization efficiency (in words) [2]	CMC [3] [mM]	solubilization efficiency at low concentrations, compared with DDM (in words) ([2]; low concentrations, CMC+1-5 mM)	time to complete solubilization of LUVs [4] [h]
OC[C@H]1O[C@H](O[C@H]2[C@H](O)[C@@H](O)[C@H](OCCCCC3(F)C(F)(F)C(F)(F)C(F)(F)C(F)(F)C3(F)F)O[C@@H]2CO)[C@H](O)[C@@H](O)[C@@H]1O [Compound 5b, 4-(perfluorocyclohexyl)-butoxy-4-O—(α-D-glucopyranosyl)-β-D-glucopyranoside]	2.29	22.7	–	–	–	–
OC[C@H]1O[C@H](O[C@H]2[C@H](O)[C@@H](O)[C@H](OCCC(F)(F)C(F)(F)C(F)(F)C(F)(F)C(F)(F)C(F)(F)F)O[C@@H]2CO)[C@H](O)[C@@H](O)[C@@H]1O [Compound F6OM, (1H, 1H, 2H, 2H-Perfluorooctyl)-β-D-Maltopyranoside, reference compound]	–	–	very limited solubilization	0.7	–	–
OC[C@H]1O[C@H](O[C@H]2[C@H](O)[C@@H](O)[C@H](OCCCCCC3(F)C(F)(F)C(F)(F)C(F)(F)C(F)(F)C3(F)F)O[C@@H]2CO)[C@H](O)[C@@H](O)[C@@H]1O [Compound 5c, 5-(perfluorocyclohexyl)-pentoxy-4-O—(α-D-glucopyranosyl)-β-D-glucopyranoside]	0.70	23.16	–	–	–	–
OC[C@H]1O[C@H](O[C@H]2[C@H](O)[C@@H](O)[C@H](OCCCCCC(F)(F)C(F)(F)C(F)(C(F)(F)F)C(F)(F)F)O[C@@H]2CO)[C@H](O)[C@@H](O)[C@@H]1O [Compound 8c, 5-(perfluoroisopentyl)-pentoxy-4-O—(α-D-glucopyranosyl)-β-D-glucopyranoside]	0.53	22.1	–	–	–	–
C[N+](C)(C)CCOP(=O)([O-])OCCC(F)(F)C(F)(F)C(F)(F)C(F)(F)C(F)(F)C(F)(F)F [Compound F6OPC, (1H, 1H, 2H, 2H-Perfluorooctyl)phosphocholine, reference compound]	–	–	very limited solubilization	2.9	–	–
OC[C@H]1O[C@H](O[C@H]2[C@H](O)[C@@H](O)[C@H](OCCCC3(F)C(F)(F)C(F)(F)C(F)(F)C(F)(F)C3(F)F)O[C@@H]2CO)[C@H](O)[C@@H](O)[C@@H]1O [Compound 5a, 3-(perfluorocyclohexyl)-propoxy-4-O—(α-D-glucopyranosyl)-β-D-glucopyranoside]	3.47	23.9	efficiently extracted membrane-proteins; also recorded: higher membrane-protein extraction yield than F6OM and F6OPC	–	better solubilization efficiencies than DDM	~2
O=C(NCCCC1(F)C(F)(F)C(F)(F)C(F)(F)C(F)(F)C1(F)F)C(O)[C@H](O)[C@H](O[C@@H]1OC(CO)[C@H](O)[C@H](O)C1O)C(O)CO (stereo partly drawn) [Compound 12, 3-(perfluorocyclohexyl)-N-propane Octahydroxy lactobionamide]	6.32	24.4	–	–	–	–
CCCCCCCCCCCCO[C@@H]1O[C@H](CO)[C@@H](O[C@H]2O[C@H](CO)[C@@H](O)[C@H](O)[C@H]2O)[C@H](O)[C@H]1O [DDM, n-dodecyl-β-D-maltoside]	–	–	–	0.17	–	–
C[N+](C)(CCCCCC1(F)C(F)(F)C(F)(F)C(F)(F)C(F)(F)C1(F)F)CCCS(=O)(=O)[O-] [Compound 17, 3-(dimethyl(5-(perfluorocyclohexyl)pentyl)ammonio)propane-1-sulfonate]	3.20	23.7	–	–	–	–
OC[C@H]1O[C@H](O[C@H]2[C@H](O)[C@@H](O)[C@H](OCCCC(F)(F)C(F)(F)C(F)(C(F)(F)F)C(F)(F)F)O[C@@H]2CO)[C@H](O)[C@@H](O)[C@@H]1O [Compound 8a, 3-(perfluoroisopentyl)-propoxy-4-O—(α-D-glucopyranosyl)-β-D-glucopyranoside]	2.66	22.5	–	–	–	–
OC[C@H]1O[C@H](O[C@H]2[C@H](O)[C@@H](O)[C@H](OCCCC(F)(F)C(F)(F)C(F)(F)C(F)(F)C(F)(C(F)(F)F)C(F)(F)F)O[C@@H]2CO)[C@H](O)[C@@H](O)[C@@H]1O [Compound 8b, 3-(perfluoroisoheptyl)-propoxy-4-O—(α-D-glucopyranosyl)-β-D-glucopyranoside]	0.11	17.4	–	–	–	–
